pKi: −log10 of the molar value.
Experiments:
[1] = target: T1, 4-galactosyl-N-acetylglucosaminide 3-alpha-L-fucosyltransferase FUT5 (Homo sapiens, UniProt Q11128); assay: Inhibition of Fucosyltransferase 5 by the compound was evaluated; Competitive inhibition
T1 sequence (Q11128 whole entry): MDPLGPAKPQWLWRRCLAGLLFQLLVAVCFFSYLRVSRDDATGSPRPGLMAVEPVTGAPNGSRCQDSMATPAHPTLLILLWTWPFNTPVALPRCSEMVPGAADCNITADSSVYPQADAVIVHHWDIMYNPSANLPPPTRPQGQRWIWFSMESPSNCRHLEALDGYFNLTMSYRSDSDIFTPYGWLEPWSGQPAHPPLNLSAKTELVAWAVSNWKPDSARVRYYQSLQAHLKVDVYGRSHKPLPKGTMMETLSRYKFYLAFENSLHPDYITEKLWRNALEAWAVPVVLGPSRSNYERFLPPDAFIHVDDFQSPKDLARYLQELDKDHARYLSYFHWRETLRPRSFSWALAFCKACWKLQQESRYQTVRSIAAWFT

[2] = target: T1, 4-galactosyl-N-acetylglucosaminide 3-alpha-L-fucosyltransferase FUT5; assay: Inhibition of Fucosyltransferase 5 by the compound was evaluated; Weak competitive inhibition

Compound	pKi [1]	pKi [2]
CC1CC(OP(=O)(O)OP(=O)(O)OC[C@H]2OC(n3cnc4c(O)nc(N)nc43)[C@H](O)[C@@H]2O)C(O)C(O)C1O (some centres not stated)	4.17	–
CC1OC(CP(=O)(O)OP(=O)(O)OC[C@H]2OC(n3cnc4c(=O)[nH]c(N)nc43)[C@H](O)[C@@H]2O)C(O)C(O)C1O (some centres not stated)	–	3.05

From ChEMBL document CHEMBL1147415, “Inhibition kinetics of carba- and C-fucosyl analogues of GDP-fucose against fucosyltransferase V: implication for the reaction mechanism” (Bioorg Med Chem Lett, 2004)
